# Measured values: US9556193B2, “Benzimidazole hexahydrofuro[3,2-b]furan derivatives” (Merck Sharp & Dohme Corp., priority 2012, dated 2017)
# What was measured:
# ob/ob and db/db mice = details: following 8 weeks of administration; cited from earlier work
# [1] = target: T1, recombinant human AMPK complex 1 (containing α1β1γ1) (Homo sapiens, UniProt Q13131+Q9Y478); assay: In vitro AMPK activation assay (AMPKSAMSF), complex 1; assay type: biochemical; details: recombinant human AMPK complex 1 (α1β1γ1); for % Maximum AMP Activation of human AMPK Complex 1: 10-point titration expressed as % maximum AMP activation; for EC50: inflection point reflecting 50% of the maximum activation
# T1 construct: made in house; host or cells: Spodoptera frugiperda Sf21 cells, baculovirus, triple infection (one virus per subunit)
# Method: (§1) The recombinant human AMPK complex 1 (containing α1β1γ1) or AMPK complex 7 (containing α2β1γ1) was obtained from baculovirus expression system. Recombinant viruses were generated by cotransfection of AMPK/pBacPak9 clones with Baculogold baculovirus DNA (Pharmingen) in spodoptera frugiperda 21 cells according to the manufacturer's instructions. Each round of virus amplification was performed for 5 days in Grace's medium containing 10% serum. Virus that had been subjected to three rounds of amplification was used for all protein production procedures. To express the AMPK complex, sf21 cells were adapted to serum free medium (SF900 II, Invitrogen) by sequential dilution from serum containing stocks into SF900II medium and maintained in shaker flasks at 90 rpm at 27° C. The recombinant AMPK enzyme complex was produced by triple infection, one recombinant virus for each of the subunits, in sf21 cells under serum free conditions. Cells were infected in log phase, 1×10^6 cells/ml, at a multiplicity of infection of ˜5. Cells were harvested by centrifugation at 10,000×g for 15 minutes after 72 hours of infection with viruses. The insect cell pellet from 2 liters of culture was resuspended in 50 ml lysis buffer (20 mM Tris-HCl, 50 mM NaCl, 50 mM NaF, 30 mM Na PPi, 0.25 M sucrose, 10 mM ZnCl2, 2 mM DTT, 0.4 mg/ml digitonin) and subjected to two cycles of freeze-thaw lysis in a dry-ice ethanol bath. Insoluble material was removed by centrifugation at 10,000×g and the supernatant was fractionated with use of polyethylene glycol (PEG). The protein fraction precipitating between 2.5 and 6% PEG was used for further purification using a Blue-Sepharose step (Zhou et al, J. Clin. Invest. 108, 1167-1174, 2001).
# (§2) The in vitro AMPK activation assay is performed in a volume of 30 μl in a 384-well plate. Enzyme reactions were assembled in the microtiter plate by adding 15 μl of 2× enzyme in assay buffer (20 mM HEPES, pH 7.3, 5 mM MgCl2, 3 mM DTT, 0.01% Brij 35 and CamK Kinase, to activate AMPK) to wells which contained either DMSO or compound. The reaction was initiated with the addition of 15 μl 2× substrate mixture containing 200 μM ATP, and 3.0 μM fluorescently labeled SAMS (5-FAM-HMRSAMSGLHLVKRR-COOH) in assay buffer. After 45-minute incubation at 25° C., the reaction was stopped by the addition of 70 μl stop buffer (100 mM HEPES, pH 7.3, 40 mM EDTA, 0.015% Brij 35). Phosphorylated 5-FAM SAMS product is assessed using a Caliper EZ Reader LabChip microfluidics reader. Product conversion is determined by calculating the peak heights of the substrate and product and reporting the product/(product+substrate) peak ratio. The 10-point titration data were expressed as % maximum AMP activation. The results were plotted using 4 parameter fit and the inflection point reflecting 50% of the maximum activation was reported as the EC50.
# [2] = target: T2, recombinant human AMPK complex 7 (containing α2β1γ1) (Homo sapiens, UniProt P54646+Q9Y478); assay: In vitro AMPK activation assay (AMPKSAMSF), complex 7; assay type: biochemical; details: recombinant human AMPK complex 7 (α2β1γ1); for Emax: 10-point titration expressed as % maximum AMP activation; for EC50: inflection point reflecting 50% of the maximum activation
# T2 construct: made in house; host or cells: Spodoptera frugiperda Sf21 cells, baculovirus, triple infection (one virus per subunit)
# Method: as §1, §2
# T1 sequence (Q13131 whole entry): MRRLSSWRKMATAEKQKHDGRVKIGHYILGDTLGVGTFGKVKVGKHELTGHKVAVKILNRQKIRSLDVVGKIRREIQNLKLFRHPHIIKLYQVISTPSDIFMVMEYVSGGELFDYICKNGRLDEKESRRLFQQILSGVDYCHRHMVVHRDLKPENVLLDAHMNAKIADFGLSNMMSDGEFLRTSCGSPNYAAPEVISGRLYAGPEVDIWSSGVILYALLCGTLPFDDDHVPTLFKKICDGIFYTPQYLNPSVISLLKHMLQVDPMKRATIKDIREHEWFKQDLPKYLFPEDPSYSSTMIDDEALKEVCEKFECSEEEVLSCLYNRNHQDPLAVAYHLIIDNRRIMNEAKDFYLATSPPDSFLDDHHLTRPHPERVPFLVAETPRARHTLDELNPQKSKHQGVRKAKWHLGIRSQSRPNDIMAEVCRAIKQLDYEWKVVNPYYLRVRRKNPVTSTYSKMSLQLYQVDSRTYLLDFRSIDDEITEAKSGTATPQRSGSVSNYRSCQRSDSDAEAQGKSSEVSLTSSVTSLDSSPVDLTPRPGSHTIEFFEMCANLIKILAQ
# T1 sequence (Q9Y478 whole entry): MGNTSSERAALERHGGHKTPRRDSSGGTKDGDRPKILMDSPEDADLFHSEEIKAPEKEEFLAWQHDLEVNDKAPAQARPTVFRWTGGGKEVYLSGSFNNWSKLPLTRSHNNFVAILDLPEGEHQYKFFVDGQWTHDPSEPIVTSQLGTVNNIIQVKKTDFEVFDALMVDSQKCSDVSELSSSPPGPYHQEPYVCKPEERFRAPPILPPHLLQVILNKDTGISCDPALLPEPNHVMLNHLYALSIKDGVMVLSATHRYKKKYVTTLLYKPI
# T1 sequence (P54619 whole entry partner): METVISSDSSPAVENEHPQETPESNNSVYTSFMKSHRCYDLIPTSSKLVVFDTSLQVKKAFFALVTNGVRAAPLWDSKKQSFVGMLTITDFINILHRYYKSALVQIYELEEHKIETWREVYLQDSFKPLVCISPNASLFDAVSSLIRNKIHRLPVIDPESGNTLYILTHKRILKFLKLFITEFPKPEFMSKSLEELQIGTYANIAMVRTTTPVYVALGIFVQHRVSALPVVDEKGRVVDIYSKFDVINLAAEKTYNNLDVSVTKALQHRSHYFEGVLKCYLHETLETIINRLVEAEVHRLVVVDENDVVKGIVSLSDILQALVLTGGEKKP
# T2 sequence (P54646 whole entry): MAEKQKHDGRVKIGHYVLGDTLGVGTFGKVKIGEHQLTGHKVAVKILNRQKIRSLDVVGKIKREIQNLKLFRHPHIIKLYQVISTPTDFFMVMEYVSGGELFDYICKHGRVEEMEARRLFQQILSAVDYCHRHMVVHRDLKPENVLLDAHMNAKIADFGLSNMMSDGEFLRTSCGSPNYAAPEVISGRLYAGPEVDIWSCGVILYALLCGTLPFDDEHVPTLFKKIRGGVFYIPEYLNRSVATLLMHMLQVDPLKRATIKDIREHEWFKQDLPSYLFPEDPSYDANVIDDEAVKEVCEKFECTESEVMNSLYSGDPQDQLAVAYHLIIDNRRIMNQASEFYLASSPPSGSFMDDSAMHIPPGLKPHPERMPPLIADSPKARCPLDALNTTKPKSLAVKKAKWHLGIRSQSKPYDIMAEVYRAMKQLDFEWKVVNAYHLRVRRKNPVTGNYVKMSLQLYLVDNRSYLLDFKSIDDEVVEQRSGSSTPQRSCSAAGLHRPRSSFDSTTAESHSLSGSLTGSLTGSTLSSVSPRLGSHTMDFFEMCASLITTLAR
# T2 sequence (Q9Y478 whole entry): as the sequence (Q9Y478 whole entry) above
# T2 sequence (P54619 whole entry partner): as the sequence (P54619 whole entry partner) above
Compound,Emax [2],EC50 [2],blood glucose reduction (ob/ob and db/db mice),% Maximum AMP Activation of human AMPK Complex 1 [1],EC50 [1]
NC(=O)c1ncn([C@@H]2O[C@H](CO)[C@@H](O)[C@H]2O)c1N [AICAR],–,–,35%,–,–
"O[C@@H]1CO[C@H]2[C@@H]1OC[C@H]2Oc1nc2c(F)c(-c3ccc(-c4ccccc4)cc3)c(F)cc2[nH]1 [Example 1, (3R,3aR,6R,6aR)-6-((5-([1,1′-biphenyl]-4-yl)-4,6-difluoro-1H-benzo[d]imidazol-2-yl)oxy)hexahydrofuro[3,2-b]furan-3-ol]",–,–,–,636%,51 nM
CS(=O)(=O)c1ccc(-c2ccc(-c3cc4nc(O[C@@H]5CO[C@H]6[C@@H]5OC[C@H]6O)[nH]c4cc3Cl)cc2)cc1 [Example 6],–,–,–,367%,14 nM
O[C@@H]1CO[C@H]2[C@@H]1OC[C@H]2Oc1nc2cc(-c3ccc(-c4ccccc4)cc3)c(Cl)cc2[nH]1 [Example 8],–,–,–,368%,32 nM
CC(C)(O)c1ccc(-c2ccc(-c3c(F)cc4[nH]c(O[C@@H]5CO[C@H]6[C@@H]5OC[C@H]6O)nc4c3F)cc2)cc1 [Example 15],–,–,–,416%,18 nM
"OCc1ccc(-c2ccc(-c3c(F)cc4[nH]c(O[C@H]5COC6C5OC[C@@H]6O)nc4c3F)cc2)cc1 (stereo partly drawn) [Example 18, (3S,6S)-6-((4,6-difluoro-5-(4′-(hydroxymethyl)-[1,1′-biphenyl]-4-yl)-1H-benzo[d]imidazol-2-yl)oxy)hexahydrofuro[3,2-b]furan-3-ol]",–,–,–,314%,6 nM
"O=C(c1ccc(-c2ccc(-c3c(F)cc4[nH]c(O[C@H]5COC6C5OC[C@@H]6O)nc4c3F)cc2)cc1)N1CC[C@@H](O)C1 (stereo partly drawn) [Example 19, (4′-(4,6-difluoro-2-(((3S,6S)-6-hydroxyhexahydrofuro[3,2-b]furan-3-yl)oxy)-1H-benzo[d]imidazol-5-yl)-[1,1′-biphenyl]-4-yl)((R)-3-hydroxypyrrolidin-1-yl)methanone]",–,–,–,232%,35 nM
O=C(O)C1CC1c1ccc(-c2ccc(-c3cc4nc(O[C@@H]5CO[C@H]6[C@@H]5OC[C@H]6O)[nH]c4cc3Cl)cc2)cc1 (stereo partly drawn) [Example 57],356%,8 nM,–,–,–
O[C@@H]1CO[C@H]2[C@@H]1OC[C@H]2Oc1nc2cc(-c3ccc(-c4ccc(-n5ccnn5)cc4)cc3)c(Cl)cc2[nH]1 [Example 73],384%,7 nM,–,–,–
O[C@@H]1CO[C@H]2[C@@H]1OC[C@H]2Oc1nc2cc(-c3ccc(-c4ccc(-n5cccn5)cc4)cc3)c(Cl)cc2[nH]1 [Example 74],369%,16 nM,–,–,–
N=c1nc(N)[nH]n1-c1ccc(-c2ccc(-c3cc4nc(O[C@@H]5CO[C@H]6[C@@H]5OC[C@H]6O)[nH]c4cc3Cl)cc2)cc1 [Example 77],368%,8 nM,–,–,–
O=S(=O)(c1ccc(-c2ccc(-c3cc4nc(O[C@@H]5CO[C@H]6[C@@H]5OC[C@H]6O)[nH]c4cc3Cl)cc2)cc1)C1CCNCC1 [Example 79],381%,9 nM,–,–,–

# More lines, in order of falling EC50 [2], values ahead:
Emax [2],EC50 [2],Compound,blood glucose reduction (ob/ob and db/db mice),% Maximum AMP Activation of human AMPK Complex 1 [1],EC50 [1]
350%,5 nM,O=C(O)C1CC1c1ccc(-c2ccc(-c3c(F)cc4[nH]c(O[C@@H]5CO[C@H]6[C@@H]5OC[C@H]6O)nc4c3F)cc2)cc1 (stereo partly drawn) [Example 26],–,–,–
316%,5 nM,CC(CO)(CO)c1ccc(-c2ccc(-c3c(F)cc4[nH]c(O[C@@H]5CO[C@H]6[C@@H]5OC[C@H]6O)nc4c3F)cc2)cc1 [Example 33],–,–,–
263%,5 nM,O[C@@H]1CO[C@H]2[C@@H]1OC[C@H]2Oc1nc2c(F)c(-c3ccc(-c4ccc(C5CNCCO5)cc4)cc3)c(F)cc2[nH]1 (stereo partly drawn) [Example 34],–,–,–
364%,5 nM,O=C1NCCC1c1ccc(-c2ccc(-c3c(F)cc4[nH]c(O[C@@H]5CO[C@H]6[C@@H]5OC[C@H]6O)nc4c3F)cc2)cc1 (stereo partly drawn) [Example 40],–,–,–
352%,5 nM,CC(CO)(CO)c1ccc(-c2ccc(-c3cc4nc(O[C@@H]5CO[C@H]6[C@@H]5OC[C@H]6O)[nH]c4cc3Cl)cc2)cc1 [Example 71],–,–,–
386%,5 nM,CNC(=O)c1ccc(-c2ccc(-c3cc4nc(O[C@@H]5CO[C@H]6[C@@H]5OC[C@H]6O)[nH]c4cc3Cl)cc2)cc1 [Example 76],–,–,–
365%,5 nM,O=C1NCCC1c1ccc(-c2ccc(-c3cc4nc(O[C@@H]5CO[C@H]6[C@@H]5OC[C@H]6O)[nH]c4cc3Cl)cc2)cc1 (stereo partly drawn) [Example 83],–,–,–
348%,4 nM,N=c1nc(N)[nH]n1-c1ccc(-c2ccc(-c3c(F)cc4[nH]c(O[C@@H]5CO[C@H]6[C@@H]5OC[C@H]6O)nc4c3F)cc2)cc1 [Example 47],–,–,–
324%,4 nM,O[C@@H]1CO[C@H]2[C@@H]1OC[C@H]2Oc1nc2cc(-c3ccc(-c4ccc(C5CNCCO5)cc4)cc3)c(Cl)cc2[nH]1 (stereo partly drawn) [Example 67],–,–,–
380%,3 nM,Oc1ccnc(-c2ccc(-c3ccc(-c4c(F)cc5[nH]c(O[C@@H]6CO[C@H]7[C@@H]6OC[C@H]7O)nc5c4F)cc3)cc2)n1 [Example 41],–,–,–
341%,3 nM,O[C@@H]1CO[C@H]2[C@@H]1OC[C@H]2Oc1nc2c(F)c(-c3ccc(-c4ccc(-n5ccnn5)cc4)cc3)c(F)cc2[nH]1 [Example 43],–,–,–
344%,3 nM,Oc1ccnc(-c2ccc(-c3ccc(-c4cc5nc(O[C@@H]6CO[C@H]7[C@@H]6OC[C@H]7O)[nH]c5cc4Cl)cc3)cc2)n1 [Example 68],–,–,–
364%,2 nM,CNC(=O)c1ccc(-c2ccc(-c3c(F)cc4[nH]c(O[C@@H]5CO[C@H]6[C@@H]5OC[C@H]6O)nc4c3F)cc2)cc1 [Example 46],–,–,–
359%,2 nM,O=c1ncn(-c2ccc(-c3ccc(-c4cc5nc(O[C@@H]6CO[C@H]7[C@@H]6OC[C@H]7O)[nH]c5cc4Cl)cc3)cc2)[nH]1 [Example 69],–,–,–
